Tested on: bleeding ulcers in a live porcine model
Assay: In vivo bleeding control by injectable gel, porcine bleeding model
Design: species or system Yorkshire pigs
Settings: 5 mL injected adjacent to bleeding ulcer
Method: To test the efficacy of epinephrine gels for bleeding control, a porcine bleeding model was created.
After ulcer creation, gel formulations or saline (negative control), epinephrine 1:10,000 (positive control) of 5 mL each were injected adjacent to the bleeding ulcer.

CNC[C@H](O)c1ccc(O)c(O)c1 [Epinephrine 1:10,000, Epinephrine]
No: Time at 5 min, bleeding present | Time at 10 min, bleeding present | Time at 15 min, bleeding present

— patent publication US20230210790A1, “GEL FOR USE IN GASTROINTESTINAL ENDOSCOPY AND ENDODERMAL, EPIDERMAL, AND OTHER MUCOSAL USES” (The Johns Hopkins University, priority 2020, published 2023)
